Test results: patent US8293292B2, “Extract of Fraxinus excelsior seeds and therapeutic applications therefor” (Naturex, S.A., priority 2008, dated 2012)

Assays:
PPAR-alpha = biological target: T1, PPAR-alpha (Homo sapiens, UniProt Q07869); assay: PPAR-alpha activation in reporter cell lines; assay type: cell-based; conditions: concentration of 10^−4 M
T1 sequence (Q07869 1-468): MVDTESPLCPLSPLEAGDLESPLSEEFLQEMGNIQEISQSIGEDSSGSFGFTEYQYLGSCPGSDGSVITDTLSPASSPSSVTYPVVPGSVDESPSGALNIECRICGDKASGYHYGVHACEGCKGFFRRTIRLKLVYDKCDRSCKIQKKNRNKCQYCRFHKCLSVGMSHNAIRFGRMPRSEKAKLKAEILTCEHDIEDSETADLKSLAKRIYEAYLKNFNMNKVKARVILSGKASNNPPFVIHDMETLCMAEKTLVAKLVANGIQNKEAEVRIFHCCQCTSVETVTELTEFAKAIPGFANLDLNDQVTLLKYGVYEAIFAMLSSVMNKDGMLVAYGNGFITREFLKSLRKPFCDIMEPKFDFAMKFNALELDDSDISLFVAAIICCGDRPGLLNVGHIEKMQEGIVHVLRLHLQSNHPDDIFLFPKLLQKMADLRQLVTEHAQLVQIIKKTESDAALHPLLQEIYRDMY
Excerpt: FIG. 6 illustrates relative PPARα activation potential (%) in reporter cell lines using concentrations ranging from 10^−5M-10^−9M for the selective synthetic PPARα activator WY14,643 as well as the isolated compounds at a concentration of 10^−4M and a 1:10 aqueous solution of FE seed extract, with compound label: FE19028 (Nuzhenide, 3), FE20015 (G13, 4), FE20031 (oleoside dimethyl ester, 6), FE21008 (excelside A, 1), and FE21023 (GI5, 5);
PPAR-alpha activity of excelside A (1), GI3 (4), and oleoside dimethyl ester (6). Five single compounds isolated from Fraxinus excelsior (FE) seed water extract were tested for PPAR-alpha activity. The synthetic and selective PPAR alpha activator WY14,643 served as positive control and DMSO which was used to dissolve these compounds as negative control in the assay.

3T3-L1 cells = assay: adipogenesis inhibition, glucose uptake of MDI-induced 3T3-L1 preadipocytes; assay type: cell-based; conditions: 0.004%, 0.02%, 0.05%, 0.1%; glucose uptake ten days after differentiation induction
Excerpt: Inhibitory effect of GI5 (5) and nuzhenide (3) on undifferentiated 3T3-L1 cells. The major component of weight gain is deposition of adipose tissue in body through the adipogenesis process. Adipogenesis is characterized by increase in the size and number of fat cells. The secoiridoids, GI5 and nuzhenide isolated from F. excelsior, have shown significant and mild adipogenesis inhibitory activity, respectively, by blocking the pathway from undifferentiated 3T3-L1 cell to differentiated adipocyte to achieve an effect on bodyweight control and body fat loss. 3T3-L1 preadipocytes were induced to differentiate with methylisobutylxanthine, dexamethasone, and insulin (MDI) hormonal cocktail in the presence or absence of compounds. Ten days after differentiation induction, the treated cells were assayed for their respective glucose uptake activity, which is an indirect measurement of differentiation (adipogenesis) because preadipocytes are incapable of insulin-induced, glucose transport-4 (GLUT4)-mediated glucose uptake while fully differentiate adipocytes are capable of this uptake. Compounds, GI5 and nuzhenide, were used at four different concentrations: 0.004%, 0.02%, 0.05%, and 0.1%. Untreated (undifferentiated) cells were used as a negative control while insulin was used as a positive control. Methanol (MeOH), the solvent of the compounds, was also used as a control.

PPAR-alpha activity (PPAR-alpha)	Compound	adipogenesis inhibitory activity (3T3-L1 cells)
good activity	C/C=C1/[C@H](O[C@@H]2O[C@H](CO[C@@H]3O[C@H](CO)[C@@H](O)[C@H](O)[C@H]3O)[C@@H](O)[C@H](O)[C@H]2O)OC=C(C(=O)OC)[C@H]1CC(=O)OC [excelside A, (2S,3E,4S) 2H-Pyran-4-acetic acid-3-ethylidene-2-[(6-O-β-D-glucopyranosyl-β-D-glucopyranosyl)oxy]-3,4-dihydro-5-(methoxycarbonyl)methyl ester]	–
–	C/C=C1\C(CC(=O)OC[C@H]2O[C@@H](OCCc3ccc(O)cc3)[C@H](O)[C@@H](O)[C@@H]2O)C(C(=O)OC)=CO[C@H]1O[C@@H]1O[C@H](CO)[C@@H](O)[C@H](O)[C@H]1O (stereo partly drawn) [nuzhenide]	mild
good activity	C/C=C1\[C@H](O[C@@H]2O[C@H](CO)[C@@H](O)[C@H](O)[C@H]2O)OC=C(C(=O)OC)[C@H]1CC(=O)OC [oleoside dimethyl ester]	–
